Test results reported in US6329399A, “Antifungal amine derivatives and processing for producing the same” (Pola Chemical Industries, Inc., priority 1997, dated 2001).
Values after ≈ are worked out from the molar mass of the structure shown.

Assays:
Test in all cases: Measurement of antimycotic activity (minimum inhibitory concentration, MIC) against dermatophyte
Format in all cases: cell-based
[1] = tested on: M. canis TIMM0760; settings: Microsporum canis, 168 h, Sabouraud's agar pH=5.9, 27° C., 1 week
Experimental: (§1) The antimycotic activity of the compounds of the invention against dermatophyte was examined.
(§2) More particularly, the test dermatophyte strains shown in Tables 9 and 10 below were cultivated in advance on a slant culture of Sabouraud's agar medium (manufactured by Nissui Seiyaku Co., Ltd.; 1.0% peptone, 4.0% glucose, 1.5% agar, pH=5.9) at 27° C. for 2 weeks to allow them to grow conidia sufficiently. Then, sterilized physiological saline containing 0.05 weight/volume % of Tween 80 was added to the culture and while rubbing the surface of the culture with a platinum loop, the conidia were separated and caused to float. Using a hemocytometer, the filtrate was adjusted with sterilized physiological saline such that the concentration of conidia was 10^6 cells/ml, which was used as a test microbe liquid.
(§3) On the other hand, PR compounds and AD compounds (test drugs) of the present invention obtained in the examples described above were taken each in an amount of 10 mg, and 1 ml of dimethyl sulfoxide was added thereto to form a stock solution, of which 500 μl was taken and 500 μl of dimethyl sulfoxide was added thereto to prepare a 2-fold dilution. The same operation was repeated to prepare 13-stages ranging from 10 to 0.0025 mg/ml (final concentration of test system 100 to 0.025 μg/ml) of diluted drug solutions. Solutions with various diluted concentrations of test drug were each dispensed in sterilized petri dish with an amount of 100 μl. Then, 10 ml of sterile-dissolved Sabouraud's agar medium (1.0% peptone, 4.0% glucose, 1.5% agar, pH=5.9) was added, well mixed and solidified. Then, 5 μl of the test microbe solution previously adjusted were added using a microplanter, respectively.
(§4) The results are shown in Table 9 for PR compounds and in Table 10 for AD compounds, respectively. In the column of Compound No. in Tables 9 and 10, "PR-" or "AD-" were omitted.

[2] = tested on: M. gypseum IF08231; settings: Nannizzia gypsea, 168 h, Sabouraud's agar pH=5.9, 27° C., 1 week
Experimental: as §1, §2, §3, §4

[3] = tested on: T. mentagrophytes IF07552; settings: Trichophyton mentagrophytes, 168 h, Sabouraud's agar pH=5.9, 27° C., 1 week
Experimental: as §1, §2, §3, §4

[4] = tested on: T. mentagrophytes TIMM1189; settings: Trichophyton mentagrophytes, 168 h, Sabouraud's agar pH=5.9, 27° C., 1 week
Experimental: as §1, §2, §3, §4

[5] = tested on: T. rubrum IF09185; settings: Trichophyton rubrum, 168 h, Sabouraud's agar pH=5.9, 27° C., 1 week
Experimental: as §1, §2, §3, §4

[6] = tested on: T. mentagrophytes TIMM1177; settings: Trichophyton mentagrophytes, 168 h, Sabouraud's agar pH=5.9, 27° C., 1 week
Experimental: as §1, §2, §3, §4

[7] = tested on: T. rubrum IF05808; settings: Trichophyton rubrum, 168 h, Sabouraud's agar pH=5.9, 27° C., 1 week
Experimental: as §1, §2, §3, §4

[8] = tested on: T. mentagrophytes IF05811; settings: Trichophyton mentagrophytes, 168 h, Sabouraud's agar pH=5.9, 27° C., 1 week
Experimental: as §1, §2, §3, §4

[9] = tested on: T. violaceum TIMM1264; settings: Trichophyton violaceum, 168 h, Sabouraud's agar pH=5.9, 27° C., 1 week
Experimental: as §1, §2, §3, §4

Row | SMILES | MIC [1] [µg/mL] | MIC [2] [µg/mL] | MIC [3] [µg/mL] | MIC [4] [µg/mL] | MIC [5] [µg/mL] | MIC [6] [µg/mL] | MIC [7] [µg/mL] | MIC [8] [µg/mL] | MIC [9] [µg/mL]
1 | C=C(CN(C)C/C=C/C#CC(C)(C)C)c1cccc(Br)c1 [Compound PR-1484, Trans-N-(6,6-dimethyl-2-hepten-4-ynyl)-N-methyl-[2-(3-bromophenyl)-2-propenyl]amine] | 0.1 (≈ 0.289 µM) | 0.39 (≈ 1.13 µM) | 0.2 (≈ 0.578 µM) | 0.39 (≈ 1.13 µM) | 0.1 (≈ 0.289 µM) | 0.1 (≈ 0.289 µM) | 0.1 (≈ 0.289 µM) | 0.1 (≈ 0.289 µM) | 0.1 (≈ 0.289 µM)
2 | C=C(CN(C)Cc1ccc(C(C)(C)C)cc1)c1cccc(C#N)c1 [Compound AD-052, 3-[1-{N-(4-tert-butylbenzyl)-N-methylamino}methyl]vinylbenzonitrile] | 0.39 (≈ 1.22 µM) | 0.39 (≈ 1.22 µM) | 0.78 (≈ 2.45 µM) | 0.78 (≈ 2.45 µM) | 0.39 (≈ 1.22 µM) | 0.78 (≈ 2.45 µM) | 0.39 (≈ 1.22 µM) | 0.39 (≈ 1.22 µM) | 1.56 (≈ 4.9 µM)
3 | C=C(CN(C)Cc1ccc(C(C)(C)C)cc1)c1ccccc1C [Compound AD-028, N-(4-tert-butylbenzyl)-N-methyl-[2-(2-methylphenyl)-2-propenyl]amine] | 3.12 (≈ 10.1 µM) | 6.25 (≈ 20.3 µM) | 3.12 (≈ 10.1 µM) | 6.25 (≈ 20.3 µM) | 3.12 (≈ 10.1 µM) | 6.25 (≈ 20.3 µM) | 3.12 (≈ 10.1 µM) | 6.25 (≈ 20.3 µM) | 6.25 (≈ 20.3 µM)
4 | C=C(CN(C)C/C=C/C#CC(C)(C)C)c1ccccc1N [Compound PR-1672, Trans-N-(6,6-dimethyl-2-hepten-4-ynyl)-N-methyl-[2-(2-aminophenyl)-2-propenyl]amine] | 1.56 (≈ 5.52 µM) | 3.12 (≈ 11 µM) | 1.56 (≈ 5.52 µM) | 3.12 (≈ 11 µM) | 1.56 (≈ 5.52 µM) | 3.12 (≈ 11 µM) | 0.78 (≈ 2.76 µM) | 3.12 (≈ 11 µM) | 3.12 (≈ 11 µM)
5 | C=C(CN(C)Cc1ccc(C(C)(C)C)cc1)c1ccc(C)c(C)c1 [Compound AD-043, N-(4-tert-butylbenzyl)-N-methyl-[2-(3,4-dimethylphenyl)-2-propenyl]amine] | 0.78 (≈ 2.43 µM) | 1.56 (≈ 4.85 µM) | 1.56 (≈ 4.85 µM) | 1.56 (≈ 4.85 µM) | 0.78 (≈ 2.43 µM) | 1.56 (≈ 4.85 µM) | 0.2 (≈ 0.622 µM) | 1.56 (≈ 4.85 µM) | 1.56 (≈ 4.85 µM)
6 | C=C(CN(C)C/C=C/C#CC(C)(C)C)c1cc(F)cc(F)c1 [Compound PR-2159, Trans-N-(6,6-dimethyl-2-hepten-4-ynyl)-N-methyl-[2-(3,5-difluorophenyl)-2-propenyl]amine] | 0.05 (≈ 0.165 µM) | 0.2 (≈ 0.659 µM) | 0.2 (≈ 0.659 µM) | 0.1 (≈ 0.33 µM) | 0.1 (≈ 0.33 µM) | 0.2 (≈ 0.659 µM) | 0.1 (≈ 0.33 µM) | 0.2 (≈ 0.659 µM) | 0.2 (≈ 0.659 µM)
7 | C=C(CN(C)C/C=C/C#CC(C)(C)C)c1ccccc1Br [Compound PR-1505, trans-N-(6,6-dimethyl-2-hepten-4-ynyl)-N-methyl-[2-(2-bromophenyl)-2-propenyl]amine] | 0.39 (≈ 1.13 µM) | 6.25 (≈ 18 µM) | 1.56 (≈ 4.5 µM) | 1.56 (≈ 4.5 µM) | 1.56 (≈ 4.5 µM) | 1.56 (≈ 4.5 µM) | 0.39 (≈ 1.13 µM) | 1.56 (≈ 4.5 µM) | 0.39 (≈ 1.13 µM)
8 | C=C(CN(C)C/C=C/C#CC(C)(C)C)c1ccccc1C [Compound PR-1533, trans-N-(6,6-dimethyl-2-hepten-4-ynyl)-N-methyl-[2-(o-tolyl)-2-propenyl]amine] | 0.39 (≈ 1.39 µM) | 6.25 (≈ 22.2 µM) | 1.56 (≈ 5.54 µM) | 0.39 (≈ 1.39 µM) | 0.39 (≈ 1.39 µM) | 0.39 (≈ 1.39 µM) | 0.39 (≈ 1.39 µM) | 0.39 (≈ 1.39 µM) | 0.39 (≈ 1.39 µM)
9 | C=C(CN(C)Cc1ccc(C(C)(C)C)cc1)c1ccc(C)cc1C [Compound AD-046, N-(4-tert-butylbenzyl)-N-methyl-[2-(2,4-dimethylphenyl)-2-propenyl]amine] | 6.25 (≈ 19.4 µM) | 12.5 (≈ 38.9 µM) | 6.25 (≈ 19.4 µM) | 12.5 (≈ 38.9 µM) | 3.12 (≈ 9.7 µM) | 12.5 (≈ 38.9 µM) | 1.56 (≈ 4.85 µM) | 6.25 (≈ 19.4 µM) | 12.5 (≈ 38.9 µM)
10 | CN(C/C=C/C#CC(C)(C)C)CC(=O)c1ccccc1O [Compound PR-1620, Trans-2-[N-(6,6-dimethyl-2-hepten-4-ynyl)-N-methylamino]-2'-hydroxyacetophenone] | 12.5 (≈ 43.8 µM) | 25 (≈ 87.6 µM) | 6.25 (≈ 21.9 µM) | 12.5 (≈ 43.8 µM) | 12.5 (≈ 43.8 µM) | 12.5 (≈ 43.8 µM) | 6.25 (≈ 21.9 µM) | 12.5 (≈ 43.8 µM) | 12.5 (≈ 43.8 µM)
11 | CN(CC(=O)c1ccccc1O)Cc1ccc(C(C)(C)C)cc1 [Compound AD-057, 2-[N-(4-tert-butylbenzyl)-N-methylamino]-2'-hydroxyacetophenone] | 6.25 (≈ 20.1 µM) | 12.5 (≈ 40.1 µM) | 12.5 (≈ 40.1 µM) | 12.5 (≈ 40.1 µM) | 6.25 (≈ 20.1 µM) | 12.5 (≈ 40.1 µM) | 3.12 (≈ 10 µM) | 12.5 (≈ 40.1 µM) | 6.25 (≈ 20.1 µM)
12 | C=C(CN(C)C/C=C/C#CC(C)(C)C)c1ccc(O)cc1 [Compound PR-1606, Trans-N-(6,6-dimethyl-2-hepten-4-ynyl)-N-methyl-[2-(4-hydroxyphenyl)-2-propenyl]amine] | 25 (≈ 88.2 µM) | 25 (≈ 88.2 µM) | 50 (≈ 176 µM) | 50 (≈ 176 µM) | 50 (≈ 176 µM) | 50 (≈ 176 µM) | 25 (≈ 88.2 µM) | 25 (≈ 88.2 µM) | 50 (≈ 176 µM)
13 | C=C(CN(C)Cc1ccc(C(C)(C)C)cc1)c1cccc([N+](=O)[O-])c1 [Compound AD-037, N-(4-tert-butylbenzyl)-N-methyl-[2-(3-nitrophenyl)-2-propenyl]amine] | 0.78 (≈ 2.3 µM) | 3.12 (≈ 9.22 µM) | 1.56 (≈ 4.61 µM) | 3.12 (≈ 9.22 µM) | 0.78 (≈ 2.3 µM) | 1.56 (≈ 4.61 µM) | 0.78 (≈ 2.3 µM) | 1.56 (≈ 4.61 µM) | 3.12 (≈ 9.22 µM)
14 | C=C(CN(C)C/C=C/C#CC(C)(C)C)c1cccc(C)c1 [Compound PR-1540, trans-N-(6,6-dimethyl-2-hepten-4-ynyl)-N-methyl-[2-(m-tolyl)-2-propenyl]amine] | 0.1 (≈ 0.355 µM) | 1.56 (≈ 5.54 µM) | 0.39 (≈ 1.39 µM) | 0.1 (≈ 0.355 µM) | 0.1 (≈ 0.355 µM) | 0.39 (≈ 1.39 µM) | 0.1 (≈ 0.355 µM) | 0.1 (≈ 0.355 µM) | 0.1 (≈ 0.355 µM)
15 | C=C(CN(C)C/C=C/C#CC(C)(C)C)c1ccc(F)cc1 [Compound PR-1430, trans-N-(6,6-dimethyl-2-hepten-4-ynyl)-N-methyl-[2-(4-fluorophenyl)-2-propenyl]amine] | 0.39 (≈ 1.37 µM) | 6.25 (≈ 21.9 µM) | 0.39 (≈ 1.37 µM) | 0.39 (≈ 1.37 µM) | 0.39 (≈ 1.37 µM) | 0.39 (≈ 1.37 µM) | 0.39 (≈ 1.37 µM) | 0.39 (≈ 1.37 µM) | 0.39 (≈ 1.37 µM)
16 | C=C(CN(C)C/C=C/C#CC(C)(C)C)c1ccccc1 [Compound PR-1258, Trans-N-(6,6-dimethyl-2-hepten-4-ynyl)-N-methyl-2-phenyl-2-propenylamine] | 0.39 (≈ 1.46 µM) | 1.56 (≈ 5.83 µM) | 0.78 (≈ 2.92 µM) | 0.78 (≈ 2.92 µM) | 0.78 (≈ 2.92 µM) | 0.78 (≈ 2.92 µM) | 0.39 (≈ 1.46 µM) | 1.56 (≈ 5.83 µM) | 1.56 (≈ 5.83 µM)
17 | C=C(CN(C)C/C=C/C#CC(C)(C)C)c1ccccc1F [Compound PR-1491, Trans-N-(6,6-dimethyl-2-hepten-4-ynyl)-N-methyl-[2-(2-fluorophenyl)-2-propenyl]amine] | 0.1 (≈ 0.35 µM) | 6.25 (≈ 21.9 µM) | 0.39 (≈ 1.37 µM) | 0.39 (≈ 1.37 µM) | 0.39 (≈ 1.37 µM) | 0.39 (≈ 1.37 µM) | 0.1 (≈ 0.35 µM) | 0.39 (≈ 1.37 µM) | 0.39 (≈ 1.37 µM)
18 | C=C(CN(C)Cc1ccc(C(C)(C)C)cc1)c1ccccc1[N+](=O)[O-] [Compound AD-033, N-(4-tert-butylbenzyl)-N-methyl-[2-(2-nitrophenyl)-2-propenyl]amine] | 6.25 (≈ 18.5 µM) | 12.5 (≈ 36.9 µM) | 6.25 (≈ 18.5 µM) | 12.5 (≈ 36.9 µM) | 3.12 (≈ 9.22 µM) | 12.5 (≈ 36.9 µM) | 3.12 (≈ 9.22 µM) | 6.25 (≈ 18.5 µM) | 12.5 (≈ 36.9 µM)
